Experimental findings from patent US8609858B2, “Spiro derivatives of parthenin as novel anticancer agents” (Council of Scientific & Industrial Research, priority 2008, dated 2013) are described below.

The test system of one assay is Hep-2. Kind of assay: In vitro cytotoxicity screening (sulphodamine B dye), Hep-2. The note with it: Homo sapiens, read-out: cell growth inhibition. The assay is classed as cell-based. Here is the method: (§1) Cells at sub confluent stage were harvested from the flask by treatment with trypsin (0.5% in PBS containing 0.02% EDTA) for determination of cytotoxicity. Cells with viability of more than 98%, as determined by trypan blue, were used for assay. The cell suspensions of required cell density were prepared in complete growth medium with gentamycin (50 μg/ml) for determination of cytotoxicity. The cells (100 μl/well) were inoculated in 96 well tissue culture plates. The cells were allowed to grow for 24 hrs temperature of 37° C. and in a humidified atmosphere of 5% CO2 in air. Stock solution of (20 mM) of test material was prepared in DMSO. The stock solution was serially diluted with complete growth medium containing 50 μg/ml of gentamycin to obtain […] working test solutions of 1., 2, 5, 10, 50 and 100 μM. In vitro cytotoxicity (IC50 value) against human cancer cell lines was determined using sulphodamine B dye.^5,6 The results are summarized in table 4.
The human Cancer Cell lines were obtained either from National Center for Cell Science, Pune, India or National Cancer Institute, Frederick, U.S.A. The human cancer cell colon: SW-620, prostrate, PC-3, DU-145 and acute lymphoblastic leukemia (MOLT-4) were grown and maintained in RPMI-1640 medium, pH 7.4, HEP-2. […]

The test system of another assay is DU-145. Kind of assay: In vitro cytotoxicity screening (sulphodamine B dye), DU-145. To be noted: Homo sapiens. The assay is classed as cell-based. Here is the method: as §1, with “Cells with viability of more than 98%, as determined by trypan blue, were used for assay.” left out, “μM.” for “μM. In vitro cytotoxicity (IC50 value) against human cancer cell lines was determined using sulphodamine B dye.^5,6 The results are summarized in table 4.”
(§2) The media were supplemented with FCS (10%), penicillin (100 Units/ml), streptomycin (100 μg/ml) and glutamine (2 mM) and cells were grown in CO2 incubator (Hera cell, Heraeus, USA) at 37° C. with 90% humidity and 5% CO2.

For the next assay, the system named is PC-3. Nature of the assay: In vitro cytotoxicity screening (sulphodamine B dye), PC-3. Format: cell-based. The note with it: Homo sapiens; PC-3 prostate cancer cell line. Here is the method:
as §1, with “Cells with viability of more than 98%, as determined by trypan blue, were used for assay.” left out, “μM.” for “μM. In vitro cytotoxicity (IC50 value) against human cancer cell lines was determined using sulphodamine B dye.^5,6 The results are summarized in table 4.”
as §2

In assay [1] the test system is acute lymphoblastic leukemia Cells (MOLT-4). Nature of the assay: DNA fragmentation by DNA gel electrophoresis. The assay is classed as cell-based, human. To be noted: 10, 50 & 100 μM, 24 hrs. As for the experimental part: DNA fragmentation was determined by electrophoresis of extracted genomic DNA from acute lymphoblastic leukemia Cells (MOLT-4). Briefly, exponentially growing cells (3×10^6 cells/ml) in 6 well plates were treated with “Compound-17” (1, 10, 50 and 100 μM) for 24 hrs. Cells were harvested, washed with PBS, pellets were dissolved in lysis buffer (10 mM EDTA, 50 mM Tris Buffer, pH 8.0, 0.5% w/v SDS and proteinase K 0.5 mg/ml) and incubated at 50° C. for 1 hr. lysate was further incubated with RNase A (0.5 mg/ml) at 50° C. for 1 hr. Finally, the DNA obtained was heated rapidly to 70° C., supplemented with loading dye and immediately resolved on to 1.5% agarose gel at 50 V for 2-3 hrs (FIG. 2).

Another assay has as its system MOLT-4 cells. Nature of the assay: DNA cell cycle analysis by flow cytometry. Format: cell-based, human. The note with it: for Sub G1 population: 24 hrs. Here is the method:
Effect of “Compound-17” on DNA content by cell cycle phase distribution was assessed using human leukemia MOLT-4. The MOLT-4 cells (1×10^6 cells/ml) in RPMI-1640 medium were incubated with “Compound-17” (1, 10, 50 and 100 μM) for 24 hrs. The cells were then washed twice with ice-cold PBS, harvested, fixed with ice-cold PBS in 70% ethanol, and stored at −20° C. for 30 min. After fixation, the cells were incubated with RNase A (0.1 mg/ml) at 37° C. for 30 min, stained with propidium iodide (50 μg/ml) for 30 min on ice in dark, and then measured for DNA content using BD-LSR Flow cytometer (Becton Dickinson, USA) equipped with electronic doublet discrimination capability using blue (488 nm) excitation from argon laser. Data were collected in list mode on 10,000 events for FL2-A vs. FL2-W and analyzed (FIG. 3).^3d

By inhibition is commonly meant the change of the read-out against control, counted positive when it falls. What is called IC50 is the point on the concentration scale where inhibition reaches its midpoint.

For `C[C@H]1CC[C@@H]2[C@@H](OC(=O)C23CC(c2c4ccccc4cc4ccccc24)=NO3)[C@]2(C)C(=O)C=C[C@@]12O` (stereo partly shown) [Compound -17], the inhibition at 5 µM with Hep-2 came to 71%; in the assay with DU-145 (at 5 μM, DU-145, read-out: cell growth inhibition) it was 85%. The values for the half-maximal inhibitory concentration (IC50) in the assay on DU-145 (DU-145 prostate cancer cell line) and with PC-3 were 4.6 µM and 4.9 µM, respectively. Also, the “DNA ladder (DNA fragmentation)” value in assay [1] was “DNA ladder was observed”. The “Sub G1 population” value in the assay on MOLT-4 cells (1 μM) turned out to be 6.58%; in the assay with MOLT-4 cells (10 μM) it was 33.09%; in the assay on MOLT-4 cells (50 μM), 33.2%; in the assay on MOLT-4 cells (100 μM), 55%. In addition, the “blockage of G1 phase of cell cycle” value in the assay with MOLT-4 cells (100 μM) is reported as “complete blockage of G1 phase”.
